Data set [1] is described as follows: Antiproliferative activity against human […] cells measured after 48 hrs by MTT assay. It is filed as functional, cell-based.
The test system of data set [2] is MCF7. Nature of the data set: Antiproliferative activity against human MCF7 cells measured after 48 hrs by MTT assay. Particulars: MCF7, 48 h. The class given is functional, cell-based. (In general: Formazan colour is commonly taken as a measure of viable cells.)
The subject of data set [3] is HeLa. Nature of the data set: Antiproliferative activity against human HeLa cells measured after 48 hrs by MTT assay. It is filed as functional, cell-based.
The next data set concerns HL-60. Nature of the data set: Antiproliferative activity against human HL-60 cells measured after 48 hrs by MTT assay. The class given is functional, cell-based. Conditions: HL-60, 48 h.
For a further data set, the system named is SW480. Description: Antiproliferative activity against human SW480 cells measured after 48 hrs by MTT assay. It is filed as functional, cell-based. Particulars: SW480, 48 h.
Data set [4] concerns HepG2. Nature of the data set: Antiproliferative activity against human HepG2 cells measured after 48 hrs by MTT assay. Particulars: HepG2, 48 h. It is filed as functional, cell-based.
Another data set deals with HT-29. Description: Antiproliferative activity against human HT-29 cells measured after 48 hrs by MTT assay. It is filed as functional, cell-based. Particulars: HT-29, 48 h.
Data set [5] relates to A549. Description: Antiproliferative activity against human A549 cells measured after 48 hrs by MTT assay. It is filed as functional, cell-based. Particulars: A549, 48 h.
For data set [6], the system named is HepG2. Nature of the data set: Antiproliferative activity against human HepG2 cells by MTT assay. It is filed as functional, cell-based.
Another data set concerns L02. Description: Antiproliferative activity against human L02 cells by MTT assay. The class given is functional, cell-based.
For data set [7], the target named is T1, Amine oxidase [flavin-containing] A (Rattus norvegicus, UniProt P21396).
T1 sequence (P21396 whole entry): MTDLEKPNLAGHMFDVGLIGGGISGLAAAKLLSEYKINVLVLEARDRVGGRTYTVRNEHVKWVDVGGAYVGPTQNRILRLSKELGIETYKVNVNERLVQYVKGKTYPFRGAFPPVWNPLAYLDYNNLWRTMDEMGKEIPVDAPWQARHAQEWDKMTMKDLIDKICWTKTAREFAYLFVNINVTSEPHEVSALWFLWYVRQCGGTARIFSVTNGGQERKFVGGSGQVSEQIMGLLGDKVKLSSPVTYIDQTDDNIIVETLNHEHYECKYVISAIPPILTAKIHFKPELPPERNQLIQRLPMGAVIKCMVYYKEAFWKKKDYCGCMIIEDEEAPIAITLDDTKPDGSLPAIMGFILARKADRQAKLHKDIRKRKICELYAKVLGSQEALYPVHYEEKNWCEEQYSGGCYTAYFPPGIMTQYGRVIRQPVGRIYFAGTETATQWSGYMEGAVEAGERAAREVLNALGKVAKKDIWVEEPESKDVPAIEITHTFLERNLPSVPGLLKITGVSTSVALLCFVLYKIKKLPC
Description: Inhibition of rat brain MAO-A relative to control. The class given is tissue-based.

The subject of the next data set is Ehrlich. Description: Antitumor activity against mouse Ehrlich ascites carcinoma xenografted in mouse model assessed tumor growth inhibition relative to control. It is filed as functional. Also on record: scale not given: the % may be the effect or the level left.
In another data set the test system is Sarcoma-180. Nature of the data set: Antitumor activity against mouse Sarcoma-180 xenografted in mouse model assessed tumor growth inhibition relative to control. The class given is functional. Also on record: scale not given: the % may be the effect or the level left.
Data set [8] has as its system HeLa. Nature of the data set: Cytotoxicity against human HeLa cells incubated for 24 hrs by MTT assay. The class given is functional, cell-based.
Data set [9] relates to HeLa. Description: Cytotoxicity against human HeLa cells incubated for 48 hrs by MTT assay. The class given is functional, cell-based.
For data set [10], the system named is MCF7. Description: Inhibition of cell proliferation in human MCF7 cells. The class given is functional, cell-based.
The nature of data set [11]: Inhibition of cell proliferation in human MCF-10A cells at 50 uM by MTT colorimetric cell viability assay relative to control. It is filed as toxicity, cell-based.
The test system of the next data set is B16-F10. Description: Anticancer activity against mouse B16-F10 cells incubated for 48 hrs by MTT assay. It is filed as functional, cell-based. Conditions: B16-F10, 48 h.
The subject of data set [12] is A549. Description: Anticancer activity against human A549 cells assessed as reduction in cell viability incubated for 48 hrs by MTT assay. Particulars: A549, 48 h. It is filed as functional, cell-based.
Data set [13] has as its system MCF7. Nature of the data set: Anticancer activity against human MCF7 cells assessed as reduction in cell viability incubated for 48 hrs by MTT assay. The class given is functional, cell-based. Conditions: MCF7, 48 h.
Data set [14] deals with MCF7. Description: Anticancer activity against human MCF7 cells at 10 uM by MTT assay relative to control. It is filed as functional.
Data set [15] concerns A549. Nature of the data set: Anticancer activity against human A549 cells assessed as inhibition of cell growth by MTT assay. The class given is functional, cell-based.
The subject of data set [16] is MCF7. Description: Anticancer activity against human MCF7 cells assessed as inhibition of cell growth by MTT assay. The class given is functional, cell-based.
Data set [17] deals with HeLa. Description: Anticancer activity against human HeLa cells assessed as inhibition of cell growth by MTT assay. It is filed as functional, cell-based.
A further data set concerns SMMC-7721. Nature of the data set: Cytotoxicity against human SMMC-7721 cells assessed as inhibition of tumor cell proliferation incubated for 72 hrs by MTT assay. It is filed as functional, cell-based. Conditions: SMMC-7721, 72 h.
For data set [18], the system named is A549. Nature of the data set: Cytotoxicity against human A549 cells assessed as inhibition of tumor cell proliferation incubated for 72 hrs by MTT assay. It is filed as functional, cell-based. Conditions: A549, 72 h.
The next data set has as its system MGC-803. Description: Cytotoxicity against human MGC-803 cells assessed as inhibition of tumor cell proliferation incubated for 72 hrs by MTT assay. It is filed as functional, cell-based. Particulars: MGC-803, 72 h.

Each structure is given as a SMILES string.

Take `CC(C)CCC[C@@H](C)[C@@H]1CCC2C3C[C@@]4(N=C5C=CC(Cl)=CN5/C4=N\Cc4ccccc4)C4C[C@@H](Cl)CC[C@]4(C)C3CC[C@@]21C` (stereo partly specified): the IC50 (commonly the concentration that inhibits the measured activity by half) came out at 4.67 µM in [1]; 3.24 µM with MCF7 [2]; 5.23 µM in the data set on HeLa [3]; 5.17 µM in the data set with HL-60; 2.33 µM in the data set with SW480; 5.37 µM in the data set on HepG2 [4]. Also, the half-inhibitory concentration (IC50) came out at 4.63 µM with HT-29 and 3.43 µM in the data set on A549 [5].
Turning to `O=C1C(=O)C2C(N=C3N=NNN3C23C(=O)Nc2ccc(F)cc23)c2ccccc21` (stereo unspecified), the IC50 in the data set with HepG2 [6] came out at 2.86 µM; with L02, 58.9 µM.
For the molecule `CC(=O)O[C@H]1CC[C@]2(C)C3CC[C@@]4(C)C(CC[C@H]4[C@H](C)CCCC(C)C)C3C[C@@]3(N=C4C=CC=CN4/C3=N\c3ccccc3)C2C1` (stereo partly specified), the half-maximal inhibitory concentration (IC50) turned out to be 5.35 µM in data set [1]; 4.31 µM in the data set on MCF7 [2]; 3.56 µM in the data set on HeLa [3]; 4.46 µM in the data set with HL-60; 5 µM with SW480; 2.43 µM with HepG2 [4]. Further, the IC50 in the data set on HT-29 is 5.04 µM; in the data set with A549 [5], 5.39 µM.
For the molecule `CCn1c(SCc2ccc(Cl)cc2)nc2c(c1=O)C1(CCCCC1)Cc1ccccc1-2`, the “inhibition (INH)” value in data set [7] is recorded as 50%. Further, the figures for the Activity with Ehrlich and in the data set with Sarcoma-180 were 56% and 40%, respectively.
With `Cc1cn(CN2C(=O)C3(c4ccccc42)C(C(=O)c2ccccc2)C3C(=O)c2ccc(Cl)cc2)nn1` (stereo unspecified), the figures for the IC50 in the data set with HeLa [8] and in the data set with HeLa [9] were 9.3 µM and 4.5 µM, respectively.
For `O=C1Nc2ccccc2C12CCNC2c1ccccc1` (stereo unspecified), the midpoint of the response in the data set on MCF7 [10], the EC50, lay at 3.53 µM. The inhibition – broadly, the drop in the measured response relative to a control, in per cent – at 50 µM in [11] amounted to 0.08%.
Turning to `CC(C)CCC[C@@H](C)[C@@H]1CCC2C3C[C@@]4(N=C5C=CC=CN5/C4=N\c4ccccc4)C4C[C@@H](Cl)CC[C@]4(C)C3CC[C@@]21C` (stereo partly specified), the IC50 in data set [1] is 3.17 µM; in the data set with MCF7 [2] it was 3.93 µM; in the data set on HeLa [3], 5.41 µM; in the data set with HL-60, 2.62 µM; with SW480, 3.42 µM; in the data set with HepG2 [4], 5.32 µM. For the same molecule, the IC50 in the data set on HT-29 worked out at 2.18 µM; in the data set on A549 [5], 3.09 µM.
As to `CC(C)CCC[C@@H](C)[C@@H]1CCC2C3C[C@@]4(N=C5C=CC=CN5/C4=N\c4ccccc4)C4CCCC[C@]4(C)C3CC[C@@]21C` (stereo partly specified), the concentration for half-maximal inhibition (IC50) in data set [1] is 5.38 µM; in the data set on MCF7 [2], 4.8 µM; with HeLa [3], 3.84 µM; in the data set with HL-60, 5.07 µM; in the data set with SW480 it was 5.21 µM; in the data set with HepG2 [4], 4.24 µM. Further, the IC50 in the data set on HT-29 was 3.1 µM; in the data set on A549 [5], 2.62 µM.
With `COC1=CC2(C=C(C(=O)NNc3ccc(F)c(F)c3)c3cc(OC)cc(OC)c32)C(OC)=CC1=O` (stereo unspecified), the half-maximal inhibitory concentration (IC50) in the data set with B16-F10 stood at 20.9 µM; with A549 [12], 20.4 µM; in the data set with MCF7 [13], 15.6 µM.
As for `Cc1cn(CN2C(=O)C3(c4ccccc42)C(C(=O)c2ccc(F)cc2)C3C(=O)c2ccc(Cl)cc2)nn1` (stereo unspecified), the IC50 turned out to be 11.2 µM with HeLa [8] and 6.3 µM in the data set on HeLa [9].
On to `COC(=O)c1[nH]nc2c1C1(C(=O)N(C(C)=O)c3ccccc31)C(C#N)=C(N)O2` (stereo unspecified), for which, in the data set on MCF7 [14], 10 µM produced 23.2% inhibition.
With `O=C1Nc2ccc(Br)cc2C12c1c(c3ccccc3oc1=O)N(c1ccc(N3CCOCC3)c(F)c1)c1c2c(=O)oc2ccccc12`, the half-inhibitory concentration (IC50) with A549 [15] was 22.2 µM; with MCF7 [16], 9.56 µM; in the data set on HeLa [17], 18.1 µM.
For the molecule `C[C@]12CC[C@H](O)CC1=CCC1C2CC[C@@]2(C)C1CC[C@@H]2C1=CC2(C(=O)N(Cc3ccc(Cl)c(Cl)c3)c3ccccc32)C(C#N)=C(N)N1` (stereo partly specified), the concentration for half-maximal inhibition (IC50) with SMMC-7721, in the data set with A549 [18] and in the data set on MGC-803 was over 128 µM in each case.
`O=C1C2=C(c3ccccc31)N(c1ccc(N3CCOCC3)c(F)c1)C1=C(C(=O)c3ccccc31)C21C(=O)Nc2ccccc21`: the results for the IC50 in the data set on A549 [15], in the data set with MCF7 [16] and with HeLa [17] were 17.8 µM, 6.47 µM and 9.14 µM, respectively.
For `O=C(c1ccc(F)cc1)C1C(C(=O)c2ccc(F)cc2)C12C(=O)Nc1ccccc12` (stereo unspecified), the 50% inhibitory concentration (IC50) in the data set on HeLa [8] is 11.2 µM; with HeLa [9], 6.25 µM.
`O=C1Nc2ccc(Br)cc2C12c1c([nH]c(=O)[nH]c1=O)N(c1ccc(N3CCOCC3)c(F)c1)c1[nH]c(=O)[nH]c(=O)c12`: the IC50 was determined as 25.6 µM in the data set with A549 [15], 23 µM in the data set with MCF7 [16] and 6.81 µM in the data set with HeLa [17].

These data come from ChEMBL document CHEMBL5233269, “Anticancer potential of spirocompounds in medicinal chemistry: A pentennial expedition” (Eur J Med Chem, 2021).
